Where a name gives a salt, the structure may show the parent alone.

The target in the assay is PAD4 enzyme (Homo sapiens (Human), UniProt Q9UM07). The assay can be described thus: Ammonia Release Biochemical Assay (citrullination detected via ammonia release). The following applies: PAD4 120 nM, substrate BAEE, 60-min preincubation, read-out: NH3 release. As to the method: Ammonia Release Biochemical Assay
Chain of PAD4 enzyme (Q9UM07 whole entry): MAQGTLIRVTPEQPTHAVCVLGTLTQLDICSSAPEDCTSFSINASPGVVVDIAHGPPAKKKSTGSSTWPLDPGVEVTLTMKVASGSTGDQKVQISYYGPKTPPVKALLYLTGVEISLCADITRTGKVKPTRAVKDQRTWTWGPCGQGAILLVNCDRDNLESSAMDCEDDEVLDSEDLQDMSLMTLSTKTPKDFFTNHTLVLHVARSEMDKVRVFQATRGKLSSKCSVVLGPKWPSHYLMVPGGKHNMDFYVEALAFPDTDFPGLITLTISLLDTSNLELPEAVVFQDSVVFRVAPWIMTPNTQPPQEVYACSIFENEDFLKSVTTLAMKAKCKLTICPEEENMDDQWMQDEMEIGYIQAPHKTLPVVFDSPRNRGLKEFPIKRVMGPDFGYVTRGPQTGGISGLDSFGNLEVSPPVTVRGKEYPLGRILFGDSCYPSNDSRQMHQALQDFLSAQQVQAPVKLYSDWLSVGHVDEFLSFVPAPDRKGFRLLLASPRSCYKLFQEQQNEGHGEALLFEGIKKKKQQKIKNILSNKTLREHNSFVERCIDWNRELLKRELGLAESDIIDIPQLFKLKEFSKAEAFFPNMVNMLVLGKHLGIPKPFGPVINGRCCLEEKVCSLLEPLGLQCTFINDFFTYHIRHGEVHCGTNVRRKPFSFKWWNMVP
Citrullination assay was detected via ammonia release. PAD4 enzyme was diluted to 120 nM in assay buffer (100 mM HEPES, 50 mM NaCl, 2 mM DDT, 0.6 mg/mL BSA, pH 7.4) added to wells containing various concentration of compound or DMSO vehicle (1% final) in black 384 well plate. Following a 60-min preincubation at room temperature, the reaction was initiated by the addition of substrate (1.5 mM BAEE in 200 mM HEPES, 50 mM NaCl, 350 uM CaCl2, 2 mM, pH 7.4). The reaction was stopped after 60 min by addition of stop/detection buffer containing 50 mM EDTA, 2.6 mM of o-phthaladehyde and 2.6 mM DTT. Assay was incubated at room temperature for 90 min before measuring fluorescence's (λex 405/λem 460 nm) on Tecan reader. IC50 was calculated using XL-fit software model 205. (Ref: Nat Chem Biol. 2015 March; 11(3):189-91).
For `N[C@@H]1CCCN(C(=O)c2cc3c4c(c2)nc(-c2cc5ccccc5n2Cc2ccccn2)n4CCN3)C1` [Example 69, (R)-(3-aminopiperidin-1-yl)(2-(1-(pyridin-2-ylmethyl)-1H-indol-2-yl)-5,6-dihydro-4H-imidazo[1,5,4-de]quinoxalin-8-yl)methanone], the IC50 was not above 1 µM.
Consider `COc1ccc2c(c1)cc(-c1nc3cc(C(=O)N4CCC[C@@H](N)C4)cc4c3n1CCO4)n2CC1CC1` [Example 60, (R)-(3-aminopiperidin-1-yl)(2-(1-(cyclopropylmethyl)-5-methoxy-1H-indol-2-yl)-3,4-dihydro-5-oxa-1,2a-diazaacenaphthylen-7-yl)methanone], for which the IC50 was not above 1 µM.
The figure for `N[C@@H]1CCCN(C(=O)c2cc3c4c(c2)nc(-c2cc5cc(-c6cccnc6)ccc5n2CC2CC2)n4CCN3)C1` [Example 68, (R)-(3-aminopiperidin-1-yl)(2-(1-(cyclopropylmethyl)-5-(pyridin-3-yl)-1H-indol-2-yl)-5,6-dihydro-4H-imidazo [1,5,4-de]quinoxalin-8-yl)methanone] is 1 to 10 µM; for `N[C@@H]1CCCN(C(=O)c2cc3c4c(c2)nc(-c2cc5ccc(F)cc5n2Cc2ncccc2F)n4CCO3)C1` [Example 35, (R)-(3-aminopiperidin-1-yl)(2-(6-fluoro-1-((3-fluoropyridin-2-yl)methyl)-1H-indol-2-yl)-3,4-dihydro-5-oxa-1,2a-diazaacenaphthylen-7-yl)methanone] it is not above 1 µM; for `COc1ccc2cc(-c3nc4cc(C(=O)N5CCC[C@@H](N)C5)cc5c4n3CCN5C)n(CC3CC3)c2c1` [Example 74, (R)-(3-aminopiperidin-1-yl)(2-(1-(cyclopropylmethyl)-6-methoxy-1H-indol-2-yl)-6-methyl-5,6-dihydro-4H-imidazo[1,5,4-de]quinoxalin-8-yl)methanone] it is not above 1 µM.
Consider `N[C@@H]1CCCN(C(=O)c2cc3c4c(c2)nc(-c2cc5ccc(F)cc5n2CC2CC2)n4CCO3)C1` [Example 28, (R)-(3-aminopiperidin-1-yl)(2-(1-(cyclopropylmethyl)-6-fluoro-1H-indol-2-yl)-3,4-dihydro-5-oxa-1,2a-diazaacenaphthylen-7-yl)methanone], for which the IC50 was not above 1 µM.
With `N[C@@H]1CCCN(C(=O)c2cc3c4c(c2)nc(-c2cc5ccccc5n2CC2CC2)n4CCN3S(=O)(=O)c2ccc(Cl)cc2)C1` [Example 81, (R)-(3-aminopiperidin-1-yl)(6-((4-chlorophenyl)sulfonyl)-2-(1-(cyclopropylmethyl)-1H-indol-2-yl)-5,6-dihydro-4H-imidazo[1,5,4-de]quinoxalin-8-yl)methanone], the IC50 was not below 10 µM.
Next, `N[C@@H]1CCCN(C(=O)c2cc3c4c(c2)nc(-c2cc5cc(Br)ccc5n2CC2CC2)n4CCN3)C1` [Example 67, (R)-(3-aminopiperidin-1-yl)(2-(5-bromo-1-(cyclopropylmethyl)-1H-indol-2-yl)-5,6-dihydro-4H-imidazo [1,5,4-de]quinoxalin-8-yl)methanone]: not above 1 µM; `COc1ccc2cc(-c3nc4cc(C(=O)N5CCC[C@@H](N)C5)cc5c4n3CCO5)n(CC3CC3)c2c1` [Example 23, (R)-(3-aminopiperidin-1-yl)(2-(1-(cyclopropylmethyl)-6-methoxy-1H-indol-2-yl)-3,4-dihydro-5-oxa-1,2a-diazaacenaphthylen-7-yl)methanone]: not above 1 µM.
Next, `N[C@@H]1CCCN(C(=O)c2cc3c4c(c2)nc(-c2cc5ccc(F)c(Cl)c5n2CC2CC2)n4CCO3)C1` [Example 87, (R)-(3-aminopiperidin-1-yl)(2-(7-chloro-1-(cyclopropylmethyl)-6-fluoro-1H-indol-2-yl)-3,4-dihydro-5-oxa-1,2a-diazaacenaphthylen-7-yl)methanone]: not above 1 µM; `N[C@@H]1CCCN(C(=O)c2cc3c4c(c2)nc(-c2cc5ccc(F)cc5n2Cc2ccc(F)cc2)n4CCO3)C1` [Example 49, (R)-(3-aminopiperidin-1-yl)(2-(6-fluoro-1-(4-fluorobenzyl)-1H-indol-2-yl)-3,4-dihydro-5-oxa-1,2a-diazaacenaphthylen-7-yl)methanone]: not above 1 µM; `N[C@@H]1CCCN(C(=O)c2cc3c4c(c2)nc(-c2cc5ccccc5n2CC(=O)O)n4CCO3)C1` [Example 42, (R)-2-(2-(7-(3-aminopiperidine-1-carbonyl)-3,4-dihydro-5-ox 1,2a-diazaacenaphthylen-2-yl)-1H-indol-1-yl)acetic acid]: not below 10 µM.
The figure for `N[C@@H]1CCCN(C(=O)c2cc3c4c(c2)nc(-c2cc5ccccc5n2Cc2cncnc2)n4CCO3)C1` [Example 29, (R)-(3-aminopiperidin-1-yl)(2-(1-(pyrimidin-5-ylmethyl)-1H-indol-2-yl)-3,4-dihydro-5-oxa-1,2a-diazaacenaphthylen-7-yl)methanone] is 1 to 10 µM; for `N[C@@H]1CCCN(C(=O)c2cc3c4c(c2)nc(-c2cc5ccccc5n2Cc2ncccc2F)n4CCO3)C1` [Example 26, (R)-(3-aminopiperidin-1-yl)(2-(1-((3-fluoropyridin-2-yl)methyl)-1H-indol-2-yl)-3,4-dihydro-5-oxa-1,2a-diazaacenaphthylen-7-yl)methanone] it is not above 1 µM.
For the molecule `CC(=O)N1CCn2c(-c3cc4ccccc4n3CC3CC3)nc3cc(C(=O)N4CCC[C@@H](N)C4)cc1c32` [Example 85], the IC50 was not above 1 µM.
Take `N[C@@H]1CCCN(C(=S)c2cc3c4c(c2)nc(-c2cc5ccccc5n2CC2CC2)n4CCN3)C1` [Example 86, (R)-(3-aminopiperidin-1-yl)(2-(1-(cyclopropylmethyl)-1H-indol-2-yl)-5,6-dihydro-4H-imidazo [1,5,4-de]quinoxalin-8-yl)methanethione]: the IC50 was not above 1 µM.
Next, `N[C@@H]1CCCN(C(=O)c2cc3c4c(c2)nc(-c2cc5ccccc5n2CC(F)F)n4CCO3)C1` [Example 47, (R)-(3-aminopiperidin-1-yl)(2-(1-(2,2-difluoroethyl)-1H-indol-2-yl)-3,4-dihydro-5-oxa-1,2a-diazaacenaphthylen-7-yl)methanone]: not above 1 µM; `CN(C)C/C=C/C(=O)N[C@@H]1CCCN(C(=O)c2cc3c4c(c2)nc(-c2cc5ccccc5n2CC2CC2)n4CCO3)C1` [Example 38, (R,E)-N-(1-(2-(1-(cyclopropylmethyl)-1H-indol-2-yl)-3,4-dihydro-5-oxa-1,2a-diazaacenaphthylene-7-carbonyl)piperidin-3-yl)-4-(dimethylamino)but-2-enamide trifluoroacetic acid salt]: not below 10 µM; `N[C@@H]1CCCN(C(=O)c2cc3c4c(c2)nc(-c2cc5ccccc5n2CCO)n4CCO3)C1` [Example 22, (R)-(3-aminopiperidin-1-yl)(2-(1-(2-hydroxyethyl)-1H-indol-2-yl)-3,4-dihydro-5-oxa-1,2a-diazaacenaphthylen-7-yl)methanone]: not above 1 µM.
Consider `Cc1csc(Cn2c(-c3nc4cc(C(=O)N5CCC[C@@H](N)C5)cc5c4n3CCO5)cc3ccccc32)n1` [Example 59, (R)-(3-aminopiperidin-1-yl)(2-(1-((4-methylthiazol-2-yl)methyl)-1H-indol-2-yl)-3,4-dihydro-5-oxa-1,2a-diazaacenaphthylen-7-yl)methanone], for which the IC50 is not above 1 µM.
Next, `COc1ccc2cc(-c3nc4cc(C(=O)N5CCC[C@@H](N)C5)cc5c4n3CCO5)n(Cc3ccc(F)cc3)c2c1` [Example 51, (R)-(3-aminopiperidin-1-yl)(2-(1-(4-fluorobenzyl)-6-methoxy-1H-indol-2-yl)-3,4-dihydro-5-oxa-1,2a-diazaacenaphthylen-7-yl)methanone]: not above 1 µM.
Next, `CN1CCn2c(-c3cc4cc(F)ccc4n3CC3CC3)nc3cc(C(=O)N4CCC[C@@H](N)C4)cc1c32` [Example 75, (R)-(3-aminopiperidin-1-yl)(2-(1-(cyclopropylmethyl)-5-fluoro-1H-indol-2-yl)-6-methyl-5,6-dihydro-4H-imidazo[1,5,4-de]quinoxalin-8-yl)methanone]: not above 1 µM; `COc1ccc2cc(-c3nc4cc(C(=O)N5CCC[C@@H](N)C5)cc5c4n3CCO5)n(Cc3ncccc3F)c2c1` [Example 33, (R)-(3-aminopiperidin-1-yl)(2-(1-((3-fluoropyridin-2-yl)methyl)-6-methoxy-1H-indol-2-yl)-3,4-dihydro-5-oxa-1,2a-diazaacenaphthylen-7-yl)methanone]: not above 1 µM; `N[C@@H]1CCCN(C(=O)c2cc3c4c(c2)nc(-c2cc5ccccc5n2Cc2ccc(CO)cc2)n4CCO3)C1` [Example 37, (R)-(3-aminopiperidin-1-yl)(2-(1-(4-(hydroxymethyl)benzyl)-1H-indol-2-yl)-3,4-dihydro-5-oxa-1,2a-diazaacenaphthylen-7-yl)methanone trifluoroacetic acid salt]: not above 1 µM.
Regarding `COCCn1c(-c2nc3cc(C(=O)N4CCC[C@@H](N)C4)cc4c3n2CCO4)cc2ccccc21` [Example 20, (R)-(3-aminopiperidin-1-yl)(2-(1-(2-methoxyethyl)-1H-indol-2-yl)-3,4-dihydro-5-oxa-1,2a-diazaacenaphthylen-7-yl)methanone], the IC50 is not above 1 µM.
Turning to `COCCn1c(-c2nc3cc(C(=O)N4CCC[C@@H](N)C4)cc4c3n2CCO4)cc2cccc(Cl)c21` [Example 36, (R)-(3-aminopiperidin-1-yl)(2-(7-chloro-1-(2-methoxyethyl)-1H-indol-2-yl)-3,4-dihydro-5-oxa-1,2a-diazaacenaphthylen-7-yl)methanone], the IC50 is not above 1 µM.

The values above are taken from patent US11833156B2, “Heterocyclic compounds as pad inhibitors” (JUBILANT EPIPAD LLC, priority 2017, dated 2023).
